The values below come from patent US20140271855A1, “SOVAPREVIR TABLETS” (Achillion Pharmaceuticals Inc., priority 2013, published 2014).

The nature of series [1]: Human pharmacokinetic parameters following a single Sovaprevir tablet dose. In kind it is in vivo. The conditions noted are these: mean.
Assay in series [2]: as above
The format is in vivo. The conditions noted are these: single tablet dose 200 mg, mean. As to the method:
A single 200 mg dose of Sovaprevir was administered to human subjects.
The pharmacokinetic parameters shown in TABLE 4 were measured in humans following administration of a single Sovaprevir tablet dose.

[3] abbreviates: single tablet dose 100 mg (Fasted).
The mark [4] stands for this setting: single tablet dose 100 mg (Fed).

As for `C=C[C@@H]1C[C@]1(NC(=O)[C@@H]1C[C@@H](Oc2cc(-c3ccccc3)nc3cc(OC)ccc23)CN1C(=O)[C@@H](CC(=O)N1CCCCC1)C(C)(C)C)C(=O)NS(=O)(=O)C1CC1` [Sovaprevir], the “AUC(0-72)” value in series [1] (setting [3]) stood at 288 ng·h/mL; in series [1] (setting [4]) it was 220 ng·h/mL; in series [1] (single tablet dose 200 mg), 489.9 ng·h/mL; in series [1] (single tablet dose 250 mg) it was 735.6 ng·h/mL; in series [1] (single tablet dose 300 mg) it was 1301 ng·h/mL. Further, the “AUC(0-∞)” value in series [1] (setting [3]) is 302 ng·h/mL; in series [1] (setting [4]), 228 ng·h/mL; in series [1] (single tablet dose 250 mg), 748.8 ng·h/mL; in series [1] (single tablet dose 300 mg), 1314 ng·h/mL; in series [2], 500.0 ng·h/mL. The maximum concentration (Cmax) is reported as 67.2 ng/mL in series [1] (setting [3]); 61.9 ng/mL in series [1] (setting [4]); 172 ng/mL in series [1] (single tablet dose 250 mg); 333 ng/mL in series [1] (single tablet dose 300 mg); 109 ng/mL in series [2]. For the same compound, the time to peak (Tmax) in series [1] (setting [3]) is 1.58 h; in series [1] (setting [4]), 4.20 h; in series [1] (single tablet dose 250 mg) it was 3.40 h; in series [1] (single tablet dose 300 mg) it was 3.39 h; in series [2], 2.61 h.

A word on the Cmax: it is the maximum level reached in the sampled fluid or tissue. What is called Tmax is the time from dosing to the highest level.
